# Reference: the COVID Moonshot data (paper PMC7615835)
# pIC50: −log10 of the molar value. Several values for one entry are separate records, joined by “and”; a condition that tells them apart may be missing. Identical values can stand only once.
# Target: SARS-CoV-2 Main Protease (SARS-CoV-2) (UniProt P0DTD1)
row,Compound,pIC50
1,Cc1ccc2cccc(Nc3cc(Cl)cc(CC(=O)Nc4cncc5ccccc45)c3)c2n1,5.31
2,O=C(Nc1cncc2ccccc12)C(NC[C@@H]1CC[C@H](C(=O)N2CCCC2)O1)c1cccc(Cl)c1 (stereo in doubt),5.56
3,O=C(Cn1nnc2ccccc21)N(Cc1cccc(Cl)c1)c1ccc(N2CCCCC2)cc1,5.44
4,CNC(=O)CN1CC(C)(C(=O)Nc2cncc3cccc(Cl)c23)c2cc(Cl)ccc2S1(=O)=O (configuration not stated),5.94
5,CN1CCCN(c2ccc(N(C(=O)c3cocn3)C(C(=O)NCCc3cccc(F)c3)c3cccnc3)cc2)C1=O (configuration not stated),4.21
6,O=C(Nc1ccc(F)cc1)[C@@H]1CN(C(=O)CCl)CCN1S(=O)(=O)c1ccsc1 (stereo in doubt),6.23
7,CCCCn1nnnc1CNC1CCc2nc(C(C)C)nn2C1 (configuration not stated),< 4.00
8,N#Cc1c(Cl)cccc1Nc1cc(Cl)cc(CC(=O)Nc2cncc3ccccc23)c1,5.71
9,O=C1CCN(S(=O)(=O)c2cccs2)CC1,< 4.00
10,CNC(=O)CN1Cc2ccc(Cl)cc2C2(CCN(c3cncc4ccc(OC)cc34)C2=O)C1 (configuration not stated),6.82
11,O=C(Nc1cncc2ccccc12)C1CN(CC2CC2)C(=O)c2ccc(Cl)cc21 (configuration not stated),6.42
12,O=C(Cc1cccc(Cl)c1)NC1CS(=O)(=O)Cc2ccccc21 (configuration not stated),< 4.00
13,Cc1cc(Nc2ccc3nc(C)sc3c2)n2ncnc2n1,< 4.00
14,CCN1CCN(c2ccc(Nc3cc(Cl)cc(CC(=O)Nc4cncc5ccccc45)c3)cc2)CC1,5.37
15,O=C(Cc1cc(Cl)cc(Nc2ccc(C(F)(F)F)cc2)c1)Nc1cncc2ccccc12,5.69
16,Cn1nc(C(=O)NC(C)(C(=O)Nc2cncc3ccccc23)c2ccc(Cl)c(Cl)c2)cc1C#N (configuration not stated),5.12 and 4.85
17,O=C(CCl)N1CCN(Cc2cccc3ccccc23)CC1,5.24
18,COC(C)(C)CS(=O)(=O)N1Cc2ccc(Cl)cc2C(C(=O)Nc2cncc3ccccc23)C1 (configuration not stated),6.70
19,COc1ccc2c(c1)c(N)nn2C(=O)Cc1cccc(Cl)c1,< 4.00
20,O=C(Cc1cc(Cl)cc(Nc2cc(Cl)c(Br)cn2)c1)Nc1cncc2ccccc12,5.71
21,CC(C)(C)c1ccc(N(C(=O)c2cn(CCN3CCOCC3)nn2)C(C(=O)NCCc2cccc(F)c2)c2cccnc2)cc1 (configuration not stated),4.98
22,CC(C)(C)c1ccc(N(C(=O)c2cocn2)C(C(=O)NCCc2cccc(F)c2)c2cnc(N3CCOCC3)nc2)cc1 (configuration not stated),< 4.00
23,COCCCNC(=O)C(c1cccnc1)N(C(=O)c1cocn1)c1ccc(C(C)(C)C)cc1 (configuration not stated),5.06
24,C=CC(=O)N(Cc1ccccc1Cl)C(C(=O)NC(C)(C)C)c1cccnc1 (configuration not stated),< 4.00
25,Cc1cc(N)ncc1NC(=O)C1CCOc2ccc(Cl)cc21 (configuration not stated),< 4.00

row,Compound,pIC50
1,Cc1cc(O)ncc1NC(=O)C1CCOc2ccc(Cl)cc21 (configuration not stated),< 4.00
2,O=C(NNc1cc(O)nc2ncccc12)c1ccnc2ccccc12,< 4.00
3,O=C1N(c2cncc3ccccc23)CCC12CN(Cc1nncs1)Cc1ccc(Cl)cc12 (configuration not stated),6.58
4,Cn1c(C(NC(=O)Cc2cc3ccccc3[nH]2)c2cccc(Cl)c2)nc2ccccc21 (configuration not stated),< 4.00
5,O=C1NC[C@@H](C(=O)Nc2cncc3ccccc23)c2cc(Cl)ccc21 (stereo in doubt),4.00
6,O=C(Cc1cc(Cl)cc(N2CCc3c([nH]c4ccccc34)C2)c1)Nc1cncc2ccccc12,5.69
7,CCOC(=O)CCCNC(=O)C(c1cccnc1)N(C(=O)c1cocn1)c1ccc(C(C)(C)C)cc1 (configuration not stated),5.20
8,Cc1ccn2cnnc2c1NC(=O)C1CCOc2ccc(Cl)cc21 (configuration not stated),< 4.00
9,O=C(CCl)N1CCCN(S(=O)(=O)c2ccccc2F)CC1,4.81
10,Cc1ccncc1NC(=O)N(Cc1ccccc1)c1cccc(Cl)c1,4.64
11,O=C(Cn1nnc2ccccc21)N(Cc1ccccn1)c1cnc(-c2ccccc2)nc1,< 4.00
12,CN(Cc1ccccc1Nc1cc(Cl)cc(CC(=O)Nc2cncc3ccccc23)c1)C1CCCCC1,5.65
13,O=C(NCC1=[SH]C=CC1)[C@@H](c1ccccc1)N1Cc2ccccc2C1=O (stereo in doubt),< 4.00
14,COc1cnc(C#N)nc1,< 4.00
15,O=C(NCCc1cccc(F)c1)C(c1cccnc1)N(C(=O)c1cocn1)c1ccc(OC2CCOC2)cc1 (configuration not stated),5.20
16,N#Cc1ccc(CC(=O)Nc2cncc3ccccc23)cc1,< 4.00
17,CN(C)S(=O)(=O)NCC1(C(=O)Nc2cncc3ccccc23)CCOc2ccc(Cl)cc21 (configuration not stated),5.56
18,O=C(Cc1cc(Cl)cc(Nc2cc(Cl)nc(Cl)n2)c1)Nc1cncc2ccccc12,5.74
19,CC(=O)Nc1ccc(Nc2cc(Cl)cc(CC(=O)Nc3cncc4ccccc34)c2)c(C(F)(F)F)c1,5.68
20,N#Cc1nccn1CCCc1cccc(Cl)c1,< 4.00
21,COC1(CS(=O)(=O)N2Cc3ccc(Cl)cc3C3(CCN(c4cncc5ccc(OCCN(C)C)cc45)C3=O)C2)CC1 (configuration not stated),6.74
22,O=C(CCl)Nc1nc2c(S(=O)(=O)NCCc3ccccc3)cccc2s1,5.30 and 4.85 and 4.43
23,CN(Cc1ccc(Cl)cc1)c1cc(Cl)cc(CC(=O)Nc2cncc3ccccc23)c1,5.62
24,COc1ccccc1N1CCN(C(=O)c2cc(=O)[nH]c3ccccc23)CC1,4.48
25,CC1CN(C(=O)c2cc(=O)[nH]c3ccccc23)CCN1c1cccc(Cl)c1 (configuration not stated),4.83

row,Compound,pIC50
1,O=C(NCCc1cccc(F)c1)C(c1cccnc1)N(C(=O)c1cnc[nH]1)C1CCC2(CCO2)CC1 (configuration not stated),< 4.00
2,Cn1nncc1C(=O)N(c1ccc(C(C)(C)C)cc1)C(C(=O)NCCc1cccc(F)c1)c1cccnc1 (configuration not stated),< 4.00
3,CC(C)(C)c1ccc(N(C(=O)c2cocn2)C(C(=O)NC2CC(F)(F)C2)c2cccnc2)cc1 (configuration not stated),5.63
4,COc1c(O[C@@H]2O[C@H](CO)[C@@H](O)[C@H](O)[C@H]2O)cc2oc(-c3ccc(O)cc3)cc(=O)c2c1O (stereo in doubt),< 4.00
5,O=C(Cc1cccc(Cl)c1)Nc1cncc2c1CCC2,5.29
6,Cc1c(Cl)cccc1S(=O)(=O)N(Cc1ccc(F)cc1)c1ccc2[nH]c(=O)[nH]c2c1,< 4.00
7,O=C(Nc1cncc2ccccc12)C1CCN(Cc2ccccc2)c2ccc(Cl)cc21 (configuration not stated),5.97
8,CC(NC(=O)C1CCC(=O)NC1)(C(=O)Nc1cncc2ccccc12)c1ccc(Cl)c(Cl)c1 (configuration not stated),5.39
9,CO[C@@H]1COC[C@H]1n1cc(C(=O)N(c2ccc(C(C)(C)C)cc2)C(C(=O)NCCc2cccc(F)c2)c2cccnc2)nn1 (stereo in doubt),< 4.00
10,O=C(NCCc1cccc(F)c1)C(c1cccnc1)N(C(=O)c1cnc[nH]1)C1CCN(c2ccccc2)C1 (configuration not stated),< 4.00
11,CC(C)(C)OC(=O)N1CCC(NC(=O)C(c2cccnc2)N(C(=O)c2cocn2)c2ccc(C(C)(C)C)cc2)C1 (configuration not stated),5.44
12,N#CC1(CS(=O)(=O)N2Cc3ccc(Cl)cc3C3(CCN(c4cncc5ccc(OCCCN6CCCC6)cc45)C3=O)C2)CC1 (configuration not stated),6.89
13,O=C(Cc1cc(Cl)cc(Nc2ccccc2OCC(F)(F)F)c1)Nc1cncc2ccccc12,5.71
14,C=CC(=O)NCC(=O)N(Cc1ccccc1)C[C@H](O)c1cccs1 (stereo in doubt),< 4.00
15,N#CC1(CS(=O)(=O)N2Cc3ccc(Cl)cc3C3(CCN(c4cncc5ccc(C(F)F)cc45)C3=O)C2)CC1 (configuration not stated),6.45
16,COC1(CS(=O)(=O)N2Cc3ccc(Cl)cc3C3(CCN(c4cncc5ccccc45)C3=O)C2)CC1 (configuration not stated),6.45
17,O=C(CN1CC(C(=O)Nc2cncc3ccccc23)c2cc(Cl)ccc2C1=O)NCC1CC1 (configuration not stated),7.14 and 6.91
18,COc1ccc(N(Cc2cccc(Cl)c2)C(=O)Cn2nnc3ccccc32)cc1,5.94
19,CCc1n[nH]c(=O)c(-c2nc(-c3c[nH]c4ncccc34)cs2)c1CC,< 4.00
20,CC(CCc1ccccc1)N1CCN(C(=O)CCl)CC1 (configuration not stated),4.69
21,CC(C)(C)c1ccc(N(C(=O)c2ccco2)C(C(=O)NCCc2cccc(F)c2)c2cncc3ccccc23)cc1 (configuration not stated),6.39
22,O=C(Cc1cncc2ccccc12)N(CCC1CCCCC1)c1cccc(Cl)c1,5.68
23,Cn1ncc2cc(N(C(=O)c3cocn3)C(C(=O)NCCc3cccc(F)c3)c3cccnc3)ccc21 (configuration not stated),4.32
24,COc1ccc(-c2cc(N)n(-c3cc(Cl)cc(CC(=O)Nc4cncc5ccccc45)c3)n2)cc1,5.57
25,O=C(Nc1cncc2ccncc12)[C@H]1CCOc2cc(F)c(Cl)cc21 (stereo in doubt),< 4.00

row,Compound,pIC50
1,O=C(Nc1[nH]nc2cccnc12)C1CCOc2ccc(Cl)cc21 (configuration not stated),< 4.00
2,CNc1cncc(NC(=O)C2CCOc3ccc(Cl)cc32)c1C (configuration not stated),4.49
3,Cc1c(N)cncc1NC(=O)Cc1cccc(C#N)c1,4.79
4,O=C(Cc1cccc(Cl)c1)Nc1c(O)cnc2ccccc12,5.07
5,CN1C(=O)CC(O)(C(=O)Nc2cncc3ccccc23)c2cc(Cl)ccc21 (configuration not stated),4.68
6,Cc1cccn2ncc(NC(=O)C3CNC(=O)c4ccc(Cl)cc43)c12 (configuration not stated),5.62
7,O=C(NCc1ccccn1)[C@H]1CN(C(=O)CCl)CCN1S(=O)(=O)c1ccsc1 (stereo in doubt),6.51
8,O=C(Cc1cc(Cl)cc(N2CCN(C(=O)[C@@H]3COc4ccccc4O3)CC2)c1)Nc1cncc2ccccc12 (stereo in doubt),5.56
9,O=C(Nc1cncc2ccccc12)C1COc2c(Cl)cccc21 (configuration not stated),5.32
10,COc1cc(CNc2cc(Cl)cc(CC(=O)Nc3cncc4ccccc34)c2)cc(OC)c1,5.54
11,CN(C)CCOc1ccc2cncc(NC(=O)C3CN(S(=O)(=O)CC4(C#N)CC4)Cc4ccc(Cl)cc43)c2c1 (configuration not stated),6.93
12,CCNc1ncc(C#N)cc1CN1CCN(C(=O)CCl)CC1,5.49
13,CN1CC(C)(C(=O)Nc2cncc3cc(S(C)(=O)=O)ccc23)c2cc(Cl)ccc2S1(=O)=O (configuration not stated),6.28
14,CCNC(=O)CN1CC2(CCN(c3cncc4ccccc34)C2=O)c2cc(Cl)ccc2S1(=O)=O (configuration not stated),6.56
15,O=C(Nc1cncc2ccc(C(F)(F)F)cc12)C1CCOc2ccc(Cl)cc21 (configuration not stated),< 4.00
16,CCOc1ccc(N(C(=O)c2cocn2)C(C(=O)NCCc2cccc(F)c2)c2cccnc2)cc1 (configuration not stated),4.81
17,CC(C)(C)c1ccc(N(C(=O)c2c[nH]nn2)C(C(=O)NCCc2cccc(F)c2)c2cccnc2)cc1 (configuration not stated),5.93
18,CCN1CCCC1C1CCCN1C(=O)CCc1c[nH]c2ccccc12 (configuration not stated),< 4.00
19,O=C(NC(c1ccccc1)c1ccccc1)[C@@H]1CN(C(=O)CCl)CCN1S(=O)(=O)c1ccsc1 (stereo in doubt),6.20
20,CCOc1ccc(N(C(=O)c2cocn2)C(C(=O)NCCc2cccc(F)c2)c2cccnc2)cn1 (configuration not stated),< 4.00
21,O=C(Nc1cccc2cc[nH]c12)c1cccc2[nH]c(=O)oc12,< 4.00
22,O=C(Cc1cc(Cl)cc(Nc2cnc(Br)cn2)c1)Nc1cncc2ccccc12,5.68
